These results are taken from ChEMBL document CHEMBL1132568, “Synthesis, pharmacological evaluation, and structure-activity relationship and quantitative structure-activity relationship studies on novel derivatives of 2,4-diamino-6,7-dimethoxyquinazoline alpha1-adrenoceptor antagonists” (J Med Chem, 1999).

The structures appear in SMILES notation.

One assay deals with 5-hydroxytryptamine receptor 2A (Rattus norvegicus, UniProt P14842). Nature of the assay: Inhibitory concentration against 5-hydroxytryptamine 2A receptor (Inactive at >1000 nM concentration).
5-hydroxytryptamine receptor 2A, sequence (P14842 whole entry): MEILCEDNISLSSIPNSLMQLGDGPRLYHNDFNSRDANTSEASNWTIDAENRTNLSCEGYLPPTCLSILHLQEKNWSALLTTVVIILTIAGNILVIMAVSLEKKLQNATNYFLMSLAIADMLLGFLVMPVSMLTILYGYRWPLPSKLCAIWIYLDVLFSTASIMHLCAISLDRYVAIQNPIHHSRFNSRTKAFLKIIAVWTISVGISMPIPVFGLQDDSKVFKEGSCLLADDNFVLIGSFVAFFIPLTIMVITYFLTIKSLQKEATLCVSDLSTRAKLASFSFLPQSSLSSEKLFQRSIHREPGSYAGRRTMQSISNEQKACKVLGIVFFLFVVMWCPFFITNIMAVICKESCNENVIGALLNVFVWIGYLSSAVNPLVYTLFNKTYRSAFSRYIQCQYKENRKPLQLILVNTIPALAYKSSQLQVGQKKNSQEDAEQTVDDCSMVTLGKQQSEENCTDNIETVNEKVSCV
As to `COc1cc2nc(N3CCc4ccccc4C3)nc(N)c2cc1OC`, the IC50 was more than 1000 nM.
Still for that read-out and setting: for `COc1cc2nc(N3CCN(C(=O)CC(c4ccccc4)c4ccccc4)CC3)nc(N)c2cc1OC` the value was more than 1000 nM; for `COc1cc2nc(N3CCN(C(=O)COc4c(OC)cccc4OC)CC3)nc(N)c2cc1OC`, more than 1000 nM; for `COc1cc2nc(N3CCN(C(=O)CCC(=O)c4ccccc4)CC3)nc(N)c2cc1OC`, more than 1000 nM.
With `COc1cc2nc(N3CCN(C(=O)COc4c(OC)cccc4C(C)C)CC3)nc(N)c2cc1OC`, the IC50 is more than 1000 nM.

Another assay deals with D(2) dopamine receptor (Rattus norvegicus, UniProt P61169). Nature of the assay: Inhibitory concentration against Dopamine receptor D2 (Inactive at >1000 nM concentration).
D(2) dopamine receptor, sequence (P61169 whole entry): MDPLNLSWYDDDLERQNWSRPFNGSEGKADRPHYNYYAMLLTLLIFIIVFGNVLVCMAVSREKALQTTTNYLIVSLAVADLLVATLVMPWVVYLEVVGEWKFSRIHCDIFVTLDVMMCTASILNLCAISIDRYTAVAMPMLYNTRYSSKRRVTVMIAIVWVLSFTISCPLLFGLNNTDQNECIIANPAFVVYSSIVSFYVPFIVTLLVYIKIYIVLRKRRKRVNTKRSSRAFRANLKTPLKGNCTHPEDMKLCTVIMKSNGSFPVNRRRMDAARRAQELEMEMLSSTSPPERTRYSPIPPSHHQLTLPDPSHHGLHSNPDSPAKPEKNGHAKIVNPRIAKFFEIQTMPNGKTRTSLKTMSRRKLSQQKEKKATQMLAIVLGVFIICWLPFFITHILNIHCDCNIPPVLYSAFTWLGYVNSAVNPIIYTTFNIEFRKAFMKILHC
For `COc1cc2nc(N3CCc4ccccc4C3)nc(N)c2cc1OC`, the IC50 is more than 1000 nM.
For the compound `COc1cc2nc(N3CCN(C(=O)CC(c4ccccc4)c4ccccc4)CC3)nc(N)c2cc1OC`, the 50% inhibitory concentration (IC50) was more than 1000 nM.
With `COc1cc2nc(N3CCN(C(=O)COc4c(OC)cccc4OC)CC3)nc(N)c2cc1OC`, the IC50 is more than 1000 nM.
On the same count and under the same terms, as for `COc1cc2nc(N3CCN(C(=O)CCC(=O)c4ccccc4)CC3)nc(N)c2cc1OC`, the figure is more than 1000 nM; as for `COc1cc2nc(N3CCN(C(=O)COc4c(OC)cccc4C(C)C)CC3)nc(N)c2cc1OC`, more than 1000 nM.

In a further assay the target is T1, Alpha-1A adrenergic receptor (Rattus norvegicus, UniProt P43140).
T1 sequence (P43140 whole entry): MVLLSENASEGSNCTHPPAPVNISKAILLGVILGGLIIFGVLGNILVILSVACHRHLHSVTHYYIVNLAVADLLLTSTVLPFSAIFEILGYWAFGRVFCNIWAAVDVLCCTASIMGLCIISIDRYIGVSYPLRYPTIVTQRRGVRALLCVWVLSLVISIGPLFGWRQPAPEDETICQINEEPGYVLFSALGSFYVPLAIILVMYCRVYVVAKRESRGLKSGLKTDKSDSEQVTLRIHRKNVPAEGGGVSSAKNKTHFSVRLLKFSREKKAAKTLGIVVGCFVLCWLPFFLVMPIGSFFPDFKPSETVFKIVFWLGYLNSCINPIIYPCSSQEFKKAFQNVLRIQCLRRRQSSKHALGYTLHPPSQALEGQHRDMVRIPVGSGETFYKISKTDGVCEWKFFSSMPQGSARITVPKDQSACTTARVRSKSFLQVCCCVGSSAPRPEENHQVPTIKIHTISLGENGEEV
Nature of the assay: The binding affinity towards Alpha-1A adrenergic receptor in the COS cell line. Format: cell-based.
`COc1cc2nc(N3CCN(C(=O)CC(c4ccccc4)c4ccccc4)CC3)nc(N)c2cc1OC` yielded a Ki of 1.48 nM.
Take `COc1cc2nc(N3CCN(C(=O)COc4c(OC)cccc4OC)CC3)nc(N)c2cc1OC`: the inhibition constant Ki turned out to be 36.2 nM.
Compound `COc1cc2nc(N3CCN(C(=O)CCC(=O)c4ccccc4)CC3)nc(N)c2cc1OC` gave a Ki of 5.68 nM.
In turn, `COc1cc2nc(N3CCN(C(=O)COc4c(OC)cccc4C(C)C)CC3)nc(N)c2cc1OC` had an inhibition constant (Ki) of 7.5 nM.

The target in the next assay is T2, Adrenergic receptor alpha-2 (Rattus norvegicus, UniProt P22086+P19328+P22909).
T2 sequence (P22086 whole entry): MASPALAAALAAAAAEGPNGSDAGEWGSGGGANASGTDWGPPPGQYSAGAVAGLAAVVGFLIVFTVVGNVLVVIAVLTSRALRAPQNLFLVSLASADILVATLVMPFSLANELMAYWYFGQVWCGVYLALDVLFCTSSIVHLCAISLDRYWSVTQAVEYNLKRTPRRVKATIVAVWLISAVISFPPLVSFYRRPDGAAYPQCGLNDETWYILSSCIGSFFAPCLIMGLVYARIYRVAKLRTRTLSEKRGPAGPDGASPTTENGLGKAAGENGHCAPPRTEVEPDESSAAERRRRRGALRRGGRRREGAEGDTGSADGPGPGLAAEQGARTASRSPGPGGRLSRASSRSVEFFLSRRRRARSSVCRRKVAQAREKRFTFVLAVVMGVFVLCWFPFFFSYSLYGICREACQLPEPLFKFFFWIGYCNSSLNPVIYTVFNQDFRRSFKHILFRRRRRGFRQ
T2 sequence (P19328 whole entry): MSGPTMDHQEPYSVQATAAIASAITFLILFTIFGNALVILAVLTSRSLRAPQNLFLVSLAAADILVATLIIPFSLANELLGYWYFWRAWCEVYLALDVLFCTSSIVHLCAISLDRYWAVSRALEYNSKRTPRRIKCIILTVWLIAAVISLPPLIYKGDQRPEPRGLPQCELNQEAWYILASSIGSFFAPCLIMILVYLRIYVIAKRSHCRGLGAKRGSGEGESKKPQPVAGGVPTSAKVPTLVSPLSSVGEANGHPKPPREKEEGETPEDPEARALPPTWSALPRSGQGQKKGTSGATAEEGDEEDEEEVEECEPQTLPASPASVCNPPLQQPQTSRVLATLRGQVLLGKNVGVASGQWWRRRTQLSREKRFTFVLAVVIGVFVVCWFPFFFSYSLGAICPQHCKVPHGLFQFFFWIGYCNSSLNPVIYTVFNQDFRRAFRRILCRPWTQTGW
T2 sequence (P22909 whole entry): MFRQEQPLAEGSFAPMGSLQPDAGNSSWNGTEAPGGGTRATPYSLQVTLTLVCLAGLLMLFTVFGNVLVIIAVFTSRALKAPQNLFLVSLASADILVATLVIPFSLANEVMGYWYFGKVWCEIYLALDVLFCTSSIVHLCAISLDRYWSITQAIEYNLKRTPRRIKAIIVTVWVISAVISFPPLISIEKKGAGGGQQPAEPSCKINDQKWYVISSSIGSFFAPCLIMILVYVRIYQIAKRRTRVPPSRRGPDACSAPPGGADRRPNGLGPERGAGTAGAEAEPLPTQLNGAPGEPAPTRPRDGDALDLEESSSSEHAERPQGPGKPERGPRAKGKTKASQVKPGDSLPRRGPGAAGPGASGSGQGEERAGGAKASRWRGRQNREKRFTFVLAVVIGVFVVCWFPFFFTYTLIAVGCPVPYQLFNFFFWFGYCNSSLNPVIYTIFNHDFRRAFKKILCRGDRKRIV
Nature of the assay: Inhibitory concentration against Alpha-2 adrenergic receptor. Format: protein assay.
In the case of `COc1cc2nc(N3CCc4ccccc4C3)nc(N)c2cc1OC`, the IC50 is recorded as more than 1000 nM.
Still for that read-out and setting: as for `COc1cc2nc(N3CCN(C(=O)CC(c4ccccc4)c4ccccc4)CC3)nc(N)c2cc1OC`, the figure is more than 1000 nM.
The same measure, in the same setting: as for `COc1cc2nc(N3CCN(C(=O)COc4c(OC)cccc4OC)CC3)nc(N)c2cc1OC`, the figure is more than 1000 nM.
Compound `COc1cc2nc(N3CCN(C(=O)CCC(=O)c4ccccc4)CC3)nc(N)c2cc1OC` displayed an IC50 of more than 1000 nM.
For `COc1cc2nc(N3CCN(C(=O)COc4c(OC)cccc4C(C)C)CC3)nc(N)c2cc1OC`, the IC50 is reported as more than 1000 nM.

The target of a further assay is T3, 5-hydroxytryptamine receptor 1A (Rattus norvegicus, UniProt P19327).
T3 sequence (P19327 whole entry): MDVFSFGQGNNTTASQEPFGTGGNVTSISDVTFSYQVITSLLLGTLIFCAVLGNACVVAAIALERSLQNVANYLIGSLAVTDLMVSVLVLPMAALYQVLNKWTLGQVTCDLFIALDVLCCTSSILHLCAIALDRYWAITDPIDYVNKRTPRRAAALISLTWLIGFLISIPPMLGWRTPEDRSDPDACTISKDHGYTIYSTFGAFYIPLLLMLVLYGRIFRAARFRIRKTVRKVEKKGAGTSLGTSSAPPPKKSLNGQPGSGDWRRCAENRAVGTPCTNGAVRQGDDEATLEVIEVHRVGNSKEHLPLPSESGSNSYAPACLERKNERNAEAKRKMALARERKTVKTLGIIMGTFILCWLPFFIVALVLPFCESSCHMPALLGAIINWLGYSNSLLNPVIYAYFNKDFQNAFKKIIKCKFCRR
Nature of the assay: Inhibitory concentration against 5-hydroxytryptamine 1A receptor (Inactive at >1000 nM concentration).
As for `COc1cc2nc(N3CCc4ccccc4C3)nc(N)c2cc1OC`, the IC50 was more than 1000 nM.
For the compound `COc1cc2nc(N3CCN(C(=O)CC(c4ccccc4)c4ccccc4)CC3)nc(N)c2cc1OC`, the IC50 was more than 1000 nM.
Compound `COc1cc2nc(N3CCN(C(=O)COc4c(OC)cccc4OC)CC3)nc(N)c2cc1OC` displayed an IC50 of more than 1000 nM.
As to `COc1cc2nc(N3CCN(C(=O)CCC(=O)c4ccccc4)CC3)nc(N)c2cc1OC`, the IC50 was more than 1000 nM.
`COc1cc2nc(N3CCN(C(=O)COc4c(OC)cccc4C(C)C)CC3)nc(N)c2cc1OC`: the IC50 is more than 1000 nM.

Another assay concerns Canis familiaris. Nature of the assay: In vivo effect on urethral contractility (UP) of dog after intravenous administration. Format: functional, Canis lupus familiaris, Urethra.
The compound `COc1cc2nc(N3CCN(C(=O)CC(c4ccccc4)c4ccccc4)CC3)nc(N)c2cc1OC` gave an ED50 of 0.031 mg/kg.
In turn, `COc1cc2nc(N3CCN(C(=O)CCC(=O)c4ccccc4)CC3)nc(N)c2cc1OC` had an ED50 of 0.035 mg/kg.
The compound `COc1cc2nc(N3CCN(C(=O)COc4c(OC)cccc4C(C)C)CC3)nc(N)c2cc1OC` registered an ED50 of 0.065 mg/kg.

Another assay addresses T4, Adrenergic receptor alpha-1 (Rattus norvegicus, UniProt P15823+P23944+P43140).
T4 sequence (P15823 whole entry): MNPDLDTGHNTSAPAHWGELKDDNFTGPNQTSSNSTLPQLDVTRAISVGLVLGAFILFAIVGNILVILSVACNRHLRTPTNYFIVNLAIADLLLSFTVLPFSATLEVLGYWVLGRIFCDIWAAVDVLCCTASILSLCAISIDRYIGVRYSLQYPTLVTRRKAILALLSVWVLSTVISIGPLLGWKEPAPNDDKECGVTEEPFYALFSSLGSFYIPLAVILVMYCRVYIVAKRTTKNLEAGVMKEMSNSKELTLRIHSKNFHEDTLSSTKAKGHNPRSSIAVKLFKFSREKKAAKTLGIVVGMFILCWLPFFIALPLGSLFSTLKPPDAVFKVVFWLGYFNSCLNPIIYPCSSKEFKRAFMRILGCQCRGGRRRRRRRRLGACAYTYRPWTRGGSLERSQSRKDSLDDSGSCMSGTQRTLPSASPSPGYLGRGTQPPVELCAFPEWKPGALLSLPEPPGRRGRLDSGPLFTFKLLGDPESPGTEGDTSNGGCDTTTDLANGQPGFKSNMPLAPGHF
T4 sequence (P23944 whole entry): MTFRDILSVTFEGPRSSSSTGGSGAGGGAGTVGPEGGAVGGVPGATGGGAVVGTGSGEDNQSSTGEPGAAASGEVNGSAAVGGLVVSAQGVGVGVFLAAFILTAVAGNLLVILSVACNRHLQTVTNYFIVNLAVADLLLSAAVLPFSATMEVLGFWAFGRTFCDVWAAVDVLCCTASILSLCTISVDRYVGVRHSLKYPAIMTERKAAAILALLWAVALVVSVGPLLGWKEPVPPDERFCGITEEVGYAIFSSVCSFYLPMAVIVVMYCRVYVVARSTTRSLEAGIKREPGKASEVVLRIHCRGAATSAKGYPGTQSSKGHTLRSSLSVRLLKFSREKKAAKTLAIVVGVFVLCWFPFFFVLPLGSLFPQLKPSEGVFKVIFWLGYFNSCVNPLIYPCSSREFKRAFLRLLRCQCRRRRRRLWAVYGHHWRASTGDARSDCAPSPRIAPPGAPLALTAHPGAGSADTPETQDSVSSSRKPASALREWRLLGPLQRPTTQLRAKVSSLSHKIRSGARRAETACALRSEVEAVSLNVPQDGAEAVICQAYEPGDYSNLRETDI
T4 sequence (P43140 whole entry): T1 sequence (P43140 whole entry)
Nature of the assay: Inhibition of Alpha-1 adrenergic receptor in rat cortex membrane. The assay is classed as cell membranes.
For `COc1cc2nc(N3CCc4ccccc4C3)nc(N)c2cc1OC`, the IC50 is 4.1 nM.
For `COc1cc2nc(N3CCN(C(=O)CC(c4ccccc4)c4ccccc4)CC3)nc(N)c2cc1OC`, the IC50 came to 1.4 nM.
`COc1cc2nc(N3CCN(C(=O)COc4c(OC)cccc4OC)CC3)nc(N)c2cc1OC` came in with an IC50 of 6 nM.
In turn, `COc1cc2nc(N3CCN(C(=O)CCC(=O)c4ccccc4)CC3)nc(N)c2cc1OC` had an IC50 of 15 nM.
On the same count and under the same terms, for `COc1cc2nc(N3CCN(C(=O)COc4c(OC)cccc4C(C)C)CC3)nc(N)c2cc1OC` the value was 4 nM.

In another assay the test system is Canis familiaris. Nature of the assay: In vivo hypotensive effect(DBP) in dog after intravenous administration. Format: functional, Canis lupus familiaris.
Regarding `COc1cc2nc(N3CCN(C(=O)CC(c4ccccc4)c4ccccc4)CC3)nc(N)c2cc1OC`, the ED25 turned out to be 0.023 mg/kg.
On to `COc1cc2nc(N3CCN(C(=O)CCC(=O)c4ccccc4)CC3)nc(N)c2cc1OC`, for which the ED25 came to 0.132 mg/kg.
`COc1cc2nc(N3CCN(C(=O)COc4c(OC)cccc4C(C)C)CC3)nc(N)c2cc1OC` showed an ED25 of 0.183 mg/kg.

For orientation: IC50 means the concentration that inhibits the measured activity by half. Read a low IC50 as higher potency. In general, Ki refers to a measure of affinity in units of concentration, obtained from inhibition or displacement. Low values mean higher affinity, high ones lower affinity. As usually defined, the ED50 is the dose that gives a 50% effect, or the effect in half of the subjects.
